Reference: PubChem BioAssay (NCI)
“And” between values parts separate entries of the source, which are not always exact repeats. Equal values may be shown once.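 Method: 48-hour compound exposure of cells in 96-well plates, five concentrations, linear interpolation of endpoints. GI50: concentration for 50% inhibition of growth. TGI is the concentration that stops growth completely.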

What was measured:
Test in all cases: NCI anticancer screen, dose series, 48 h
COLO 205 colon = test system: COLO 205 colon
NCI/ADR-RES ovarian = test system: NCI/ADR-RES ovarian
HT29 colon = test system: HT29 colon
SF-539 CNS = test system: SF-539 CNS
NCI-H226 lung = test system: NCI-H226 lung
HCC-2998 colon = test system: HCC-2998 colon
K-562 leukemia = test system: K-562 leukemia
SK-MEL-28 melanoma = test system: SK-MEL-28 melanoma
HL-60(TB) leukemia = test system: HL-60(TB) leukemia
SW-620 colon = test system: SW-620 colon

| SMILES | GI50 (COLO 205 colon) | TGI (COLO 205 colon) [µM] | GI50 (NCI/ADR-RES ovarian) [µM] | TGI (NCI/ADR-RES ovarian) [µM] | GI50 (HT29 colon) | TGI (HT29 colon) [µM] | GI50 (SF-539 CNS) | TGI (SF-539 CNS) | GI50 (NCI-H226 lung) | TGI (NCI-H226 lung) [µM] | TGI (HCC-2998 colon) [µM] | GI50 (K-562 leukemia) | TGI (K-562 leukemia) [µM] | GI50 (SK-MEL-28 melanoma) | TGI (SK-MEL-28 melanoma) [µM] | GI50 (HL-60(TB) leukemia) | TGI (HL-60(TB) leukemia) [µM] | GI50 (SW-620 colon) | TGI (SW-620 colon) [µM] | GI50 (HCC-2998 colon) [µM] |
| --- | --- | --- | --- | --- | --- | --- | --- | --- | --- | --- | --- | --- | --- | --- | --- | --- | --- | --- | --- | --- |
| CC(C)NC[C@@H](C(=O)N1CCN(c2ncnc3c2[C@H](C)C[C@H]3O)CC1)c1ccc(Cl)cc1 | 3.48 µM and 7.6 µM | > 100 | > 100 | > 100 | 1.58 µM and 3.45 µM | > 100 | 0.401 µM and 0.396 µM | > 10 µM and 40.1 µM | 5.16 µM and 13.3 µM | > 100 | > 100 | > 10 µM and 48.1 µM | > 100 | > 10 µM and 36.6 µM | > 100 | > 10 µM and 39.4 µM | > 100 | > 10 µM and 35.9 µM | > 100 | – |
| Cc1occc1C(=S)Nc1ccc(Cl)c(COC(C)(C)C)c1 | – | 30.6 | – | 33.4 | – | 29.6 | – | 31.1 µM | – | 34.2 | 32.2 | – | – | – | 30.1 | – | 45 | – | 33.5 | – |
| ClCCn1c(CCl)nc2ccc(Cl)cc21 | 1.55 µM | 3.07 | 1.21 | 4.36 | 0.436 µM | 1.39 | 1.44 µM | 2.82 µM | 0.193 µM | 0.442 | 3.87 | 0.34 µM | 1.03 | 1.68 µM | 3.49 | 1.89 µM | 4.11 | 0.289 µM | 1.11 | 2.01 |
| Cc1c(C(=O)/C=C/c2csc3ccccc23)[n+](=O)c2ccccc2n1[O-] | – | – | 2.01 | 5 | 2.2 µM | 4.13 | 1.59 µM | 3.12 µM | 1.82 µM | 4.94 | 3.38 | – | – | 2.07 µM | 4.81 | 1.78 µM | 5.19 | 1.49 µM | 2.81 | 1.91 |
| O=C(c1ccc(F)cc1)c1cccc(C(=O)c2ccc(F)cc2)n1 | – | > 100 | – | > 100 | – | > 100 | – | 56.3 µM | – | > 78 | > 100 | – | > 100 | – | > 100 | – | > 100 | – | > 100 | – |
| COc1ccc(C(=O)/C=C/c2ccc(/C=C/c3cc(OC)c(OC)c(OC)c3)cc2)cc1 | 13.7 µM | > 100 | 5.46 | > 100 | 4.17 µM | > 100 | 12.2 µM | 78.3 µM | 3.57 µM | 22.8 | > 100 | 3.03 µM | > 100 | 16.9 µM | > 100 | 4.49 µM | > 100 | 4.5 µM | > 100 | 38.5 |
| CCCCCn1c(=N)n(CC(O)COc2cccc(C)c2)c2ccccc21 (centres undefined) | 1.93 µM | 3.62 | 10.5 | 27.1 | 2.73 µM | 11.2 | 11.7 µM | 24.7 µM | 10.3 µM | 28 | 3.98 | 2.76 µM | 10.2 | 3.95 µM | 14.7 | 2.15 µM | 4.9 | 4.26 µM | 18.3 | 2.1 |
| N#Cc1cnc2cc(OC[C@H](O)CO)c(NC(=O)CC3CSSC3)cc2c1Nc1ccc(OCc2cccc(F)c2)c(Cl)c1 | 0.883 µM | 1.81 | 2.72 | 5.1 | 0.221 µM | 0.836 | 0.791 µM | 1.55 µM | 0.335 µM | 1.49 | 1.55 | 0.122 µM | 0.361 | 0.126 µM | 0.319 | 0.806 µM | 1.93 | 0.698 µM | 1.58 | 0.796 |
| CCN(CC)S(=O)(=O)c1ccc(OC)c(Nc2ncc(-c3ccccc3)o2)c1 | > 25 µM | > 25 | > 17.8 | > 25 | > 17.6 µM | > 25 | > 17.3 µM | > 25 µM | > 5.28 µM | > 25 | > 25 | > 16.2 µM | > 25 | > 25 µM | > 25 | > 15 µM | > 25 | > 23.7 µM | > 25 | > 25 |
| Nc1ccn(Cc2ccc(C34CC5CC(CC(C5)C3)C4)c(O)c2)c(=O)n1 | > 100 µM | > 100 | > 100 | > 100 | > 100 µM | > 100 | 42 µM | > 100 µM | > 100 µM | > 100 | > 100 | 35.3 µM | > 100 | > 100 µM | > 100 | 62.9 µM | > 100 | > 100 µM | > 100 | 32.1 |
| COc1ccc2nc3cc([N+](=O)[O-])ccc3c(NCCCCCN(C)C)c2c1 | 0.241 µM | 1.68 | 2.13 | 13.5 | 0.0643 µM | 0.38 | 0.319 µM | 1.66 µM | 0.309 µM | 1.68 | – | 0.0255 µM | 0.353 | 0.283 µM | 1.18 | 0.14 µM | 2.52 | 0.272 µM | 3 | – |
| COc1ccc(-c2ccc(/C=N/n3c(COc4ccc(Cl)cc4Cl)n[nH]c3=S)o2)c([N+](=O)[O-])c1 | 32.9 µM | > 100 | 19.8 | 46.4 | 34.2 µM | 79.6 | 25.7 µM | 49.7 µM | 2.52 µM | 11.9 | – | 19.3 µM | 47.4 | 30.3 µM | 62.5 | 21.5 µM | 51.2 | 30.7 µM | 97.6 | – |
| O=C(CC(=O)CC(O)(C(F)(F)F)C(F)(F)F)CC(O)(C(F)(F)F)C(F)(F)F | – | > 10 | – | > 10 | – | > 10 | – | > 10 µM | – | > 10 | – | – | > 10 | – | > 10 | – | > 10 | – | > 10 | – |
